These results are taken from ChEMBL document CHEMBL4715697, “Synthesis and biological activity of benzamide DNA minor groove binders” (2016).

For assay [1], the system named is Poly(dA-dT)oligonucleotide. Briefly: Binding affinity to minor groove of poly(dA:dT) dsDNA (unknown origin) assessed as change in melting temperature by UV-vis spectrophotometry based DNA melting assay. Format: nucleic-acid assay.
The subject of assay [2] is Poly(dA-dT)oligonucleotide. The assay can be described thus: Displacement of ethidium bromide from minor groove of poly(dA:dT) dsDNA (unknown origin) by fluorescence spectrophotometry. Format: nucleic-acid assay.
For assay [3], the system named is HL-60(TB). Briefly: Growth inhibition of human HL-60(TB) cells assessed as cell growth at 10 uM incubated for 48 hrs by sulforhodamine B assay relative to control. Particulars: read-out: Activity. It is filed as functional. A general note: The SRB assay estimates cell density from bound dye.
Assay [4] concerns EKVX. The assay can be described thus: Growth inhibition of human EKVX cells assessed as cell growth at 10 uM incubated for 48 hrs by sulforhodamine B assay relative to control. To be noted: read-out: Activity. Format: functional.
Assay [5] deals with NCI-H226. Briefly: Growth inhibition of human NCI-H226 cells assessed as cell growth at 10 uM incubated for 48 hrs by sulforhodamine B assay relative to control. Format: functional. Particulars: read-out: Activity.
Assay [6] deals with NCI-H322M. The assay can be described thus: Growth inhibition of human NCI-H322M cells assessed as cell growth at 10 uM incubated for 48 hrs by sulforhodamine B assay relative to control. To be noted: read-out: Activity. It is filed as functional.
The test system of assay [7] is COLO 205. Briefly: Growth inhibition of human COLO 205 cells assessed as cell growth at 10 uM incubated for 48 hrs by sulforhodamine B assay relative to control. Format: functional. Particulars: read-out: Activity.
Assay [8] concerns KM12. The assay can be described thus: Growth inhibition of human KM12 cells assessed as cell growth at 10 uM incubated for 48 hrs by sulforhodamine B assay relative to control. Format: functional. Particulars: read-out: Activity.
In assay [9] the test system is SF-295. The assay can be described thus: Growth inhibition of human SF-295 cells assessed as cell growth at 10 uM incubated for 48 hrs by sulforhodamine B assay relative to control. It is filed as functional. Particulars: read-out: Activity.
Assay [10] deals with SF-539. Briefly: Growth inhibition of human SF-539 cells assessed as cell growth at 10 uM incubated for 48 hrs by sulforhodamine B assay relative to control. It is filed as functional. To be noted: read-out: Activity.
The subject of assay [11] is SNB-19. The assay can be described thus: Growth inhibition of human SNB-19 cells assessed as cell growth at 10 uM incubated for 48 hrs by sulforhodamine B assay relative to control. It is filed as functional. Particulars: read-out: Activity.
Assay [12] deals with Malme-3M. The assay can be described thus: Growth inhibition of human Malme-3M cells assessed as cell growth at 10 uM incubated for 48 hrs by sulforhodamine B assay relative to control. It is filed as functional. To be noted: read-out: Activity.
The subject of assay [13] is SK-MEL-2. Briefly: Growth inhibition of human SK-MEL-2 cells assessed as cell growth at 10 uM incubated for 48 hrs by sulforhodamine B assay relative to control. It is filed as functional. Particulars: read-out: Activity.
Assay [14] deals with SK-MEL-28. Briefly: Growth inhibition of human SK-MEL-28 cells assessed as cell growth at 10 uM incubated for 48 hrs by sulforhodamine B assay relative to control. It is filed as functional. Particulars: read-out: Activity.
In assay [15] the test system is NCI/ADR-RES. Briefly: Growth inhibition of human NCI/ADR-RES cells assessed as cell growth at 10 uM incubated for 48 hrs by sulforhodamine B assay relative to control. It is filed as functional. To be noted: read-out: Activity.
In assay [16] the test system is MCF7. Briefly: Growth inhibition of human MCF7 cells assessed as cell growth at 10 uM incubated for 48 hrs by sulforhodamine B assay relative to control. Format: functional. To be noted: read-out: Activity.
Assay [17] concerns MDA-MB-231. Briefly: Growth inhibition of human MDA-MB-231 cells assessed as cell growth at 10 uM incubated for 48 hrs by sulforhodamine B assay relative to control. To be noted: read-out: Activity. Format: functional.
Assay [18] has as its system Hs-578T. Briefly: Growth inhibition of human Hs-578T cells assessed as cell growth at 10 uM incubated for 48 hrs by sulforhodamine B assay relative to control. It is filed as functional. To be noted: read-out: Activity.
Assay [19] has as its system T47D. The assay can be described thus: Growth inhibition of human T47D cells assessed as cell growth at 10 uM incubated for 48 hrs by sulforhodamine B assay relative to control. Format: functional. To be noted: read-out: Activity.

Each structure is given as a SMILES string.

As usually defined, the ΔTm is the shift of the melting midpoint relative to a reference. As to `CCN(CC)CC(=O)Nc1cccc(C(=O)Nc2cc(CO)cc(NC(C)=O)c2)c1`, in assay [1], the ΔTm stood at 8.7 °C. Also, in assay [2], the C50 was > 1 mM. Further, the growth at 10 µM worked out at 105% in [3]; 120% in assay [4]; 95.7% in assay [5]; 117% in [6]; 112% in [7]; 110% in assay [8]. Besides, the growth at 10 µM worked out at 87% in assay [9]; 98.7% in assay [10]; 105% in assay [11]; 102% in [12]; 99.8% in [13]; 112% in [14]. Moreover, the growth at 10 µM in [15] was found to be 107%; in [16], 88.9%; in assay [17], 126%; in [18] it was 130%; in [19], 92.9%.

Consider `CC(=O)Nc1cc(CCl)cc(NC(=O)c2ccc(C(=O)NCCCN(C)C)cc2)c1`, for which, in assay [1], the ΔTm came out at 21.6 °C. The C50 in [2] was determined as 0.506 mM. Also, the growth at 10 µM was found to be 104% in assay [3]; 101% in assay [4]; 105% in assay [5]; 116% in [6]; 111% in assay [7]; 107% in [8]. For the same compound, the growth at 10 µM in assay [9] was 97.6%; in assay [10], 92.8%; in [11], 117%; in assay [12], 109%; in [13], 102%; in assay [14], 107%. Besides, the growth at 10 µM in [15] is 109%; in assay [16], 81.5%; in assay [17], 139%; in assay [18] it was 111%; in assay [19], 97.6%.
